The source of these data is PMC7663597, “Structure–Activity Relationship of Aloperine Derivatives as New Anti–Liver Fibrogenic Agents” (Molecules, 2020).

Data set [1] concerns α-SMA protein. Briefly: Western blot of α-SMA protein in LX-2 cells. It counts as cell-based, human. The conditions noted are these: with TGF-β1, 6 and 12 μM, 24 h. The protocol:
Stellate cell activation is a key process for liver fibrogenesis, and α-SMA expression, induced by a stimulation of TGF-β1 or other factors, is considered a reliable marker of hepatic stellate cell activation and a key biomarker for liver fibrosis. Therefore, the expression of α-SMA was also investigated. As presented in Figure 3A–C and Supplementary Table S2, in our experiments, the addition of TGF-β1 stimulated the expression of α-SMA on protein level as expected.
LX-2 cells were cultured as described above. Cells were washed with phosphate-buffered saline (PBS) and were resuspended by radioimmunoprecipitation assay (RIPA) lysis buffer for 30 min in 4 °C; the supernatant was collected after centrifugation at 12000 g for 15 min at 4 °C. Subsequently, equal amounts of protein were quantified with Bradford assay, separated using SDS-PAGE and transferred onto polyvinylidene difluoride membrane. The membranes were blocked with 5% milk in PBST for 1 h, and probed with specific primary antibodies overnight at room temperature. The membrane was washed three times by PBST, and probed with horseradish peroxidase-conjugated secondary antibodies and GAPDH. The proteins were visualized by chemiluminescence reagents. […]
On the technique in general: A western blot detects proteins with antibodies after separation by electrophoresis.

The subject of data set [2] is TGF-β1 protein. The data set is described as follows: Western blot of TGF-β1 protein in LX-2 cells. The format is cell-based, human. The conditions noted are these: 24 h. As to the method: At the meantime, the addition of TGF-β1 also stimulated the expression of TGF-β1 on protein level, as shown in Figure 3A–C and Supplementary Table S2.
(§1) LX-2 cells were cultured as described above. Cells were washed with phosphate-buffered saline (PBS) and were resuspended by radioimmunoprecipitation assay (RIPA) lysis buffer for 30 min in 4 °C; the supernatant was collected after centrifugation at 12000 g for 15 min at 4 °C. Subsequently, equal amounts of protein were quantified with Bradford assay, separated using SDS-PAGE and transferred onto polyvinylidene difluoride membrane. The membranes were blocked with 5% milk in PBST for 1 h, and probed with specific primary antibodies overnight at room temperature. The membrane was washed three times by PBST, and probed with horseradish peroxidase-conjugated secondary antibodies and GAPDH. The proteins were visualized by chemiluminescence reagents. Antibodies used in western blot analysis were obtained from Abcam (Cambridge, UK): anti-collagen 1 (ab34710), anti-TGF beta 1 antibody (ab179695), anti-alpha smooth muscle actin (ab32575) and Cell Signaling Technology (Danvers, MA, USA): GAPDH (D16H11) Rabbit mAb (5174).

Data set [3] is described as follows: HepG2 cell survival, MTT assay. The format is cell-based. The conditions noted are these: human, HepG2 cells. The protocol:
HepG2 cell survival was measured by MTT assay. HepG2 cells, at density of 6x10^3 cells/well in 96-well culture plates, were incubated with the aloperine derivates at various concentrations until the cells at 50% confluence for 24 h. 20 µL of the MTT (5 mg/mL) solution was added to each plate and incubated with 5% CO2, 37 °C for 4 h. Subsequently, withdrawing the culture supernatant containing MTT, 150 µL DMSO was used for dissolving the formazan crystal. The absorbance was measured using a microplate reader at 570 nm.
For orientation: Formazan colour is commonly taken as a measure of viable cells.

Data set [4] has as its system COL1A1 protein. The data set is described as follows: Western blot of COL1A1 protein in LX-2 cells. It counts as cell-based. The conditions noted are these: Homo sapiens, 24 h, read-out: Inhibition rate of COL1A1 protein; for inhibition at 6 µM: with TGF-β1, 6 μM; for inhibition at 12 µM: with TGF-β1, 12 μM. As to the method: Then the anti-COL1A1 effects of 4n and 4p on protein level were evaluated by western blot assay.
as §1

As for `O=C(CN1CCCC2=C[C@H]3C[C@H](CN4CCCC[C@H]34)[C@@H]21)N1c2ccccc2Oc2ccccc21` [4p, 12N-N′-Phenoxazinylcarbamoylmethyl aloperine], the “Inhibition of α-SMA expression on protein level” value in data set [1] is on record as “dose-dependent inhibition”. For the same compound, the “Inhibition rate of TGF-β1 protein expression” value in data set [2] (with TGF-β1, 6 μM) came to 20.8%; in data set [2] (with TGF-β1, 12 μM), 135.4%. Besides, the CC50 (in general, the concentration that lowers cell viability or growth by half) at 24 h in data set [3] amounted to 43.7 ± 2.7 µM. In addition, the inhibition (commonly the drop in the measured response relative to a control, in per cent) at 6 µM in data set [4] is 22.7%. The inhibition at 12 µM in data set [4] is 79.2%.
`O=C(CN1CCCC2=C[C@H]3C[C@H](CN4CCCC[C@H]34)[C@@H]21)N(c1ccccc1)c1ccc2ccccc2c1` [4n, 12N-(N’-(Naphthalen-2-yl)-N’-phenyl)carbamoylmethyl aloperine]: in data set [1], the “Inhibition of α-SMA expression on protein level” value was “dose-dependent inhibition”. Besides, the “Inhibition rate of TGF-β1 protein expression” value in data set [2] (with TGF-β1, 6 μM) is recorded as 14.6%; in data set [2] (with TGF-β1, 12 μM), 61.0%. This compound also gave a CC50 at 24 h in data set [3] of 35.2 ± 4.1 µM. Also, the inhibition at 6 µM in data set [4] was found to be 31.8%. In addition, the inhibition at 12 µM in data set [4] stood at 76.5%.
